Reference: paper PMC5216056 (Nature Communications, 2017)
Values joined by “and” are separate entries in the source; they are usually repeats but may differ in a detail not shown here. Identical values can stand only once. “Also recorded” adds a separate entry of the source.

Assays:
[1] = test system: C57BL6/J mice; assay: Triad assay: catalepsy; assay type: in vivo, mouse
[2] = physchem; settings: organic solvent or mixture
[3] = in vitro; settings: C57BL6, mouse, hepatocytes
[4] = molecular target: T1, MC1 (Mus musculus, UniProt Q01727); assay: CEREP panel; assay type: binding
T1 construct: CEREP (contract assay)

[5] = in vitro; settings: human, hepatocytes
[6] = physchem; settings: pH 6.5, aqueous buffer, thermodynamic from solid
[7] = molecular target: T2, BLT1 (LTB4) (Homo sapiens, UniProt Q15722); assay: CEREP panel; assay type: binding
T2 construct: CEREP

[8] = molecular target: T3, motilin (Homo sapiens, UniProt O43193); assay: CEREP panel; assay type: binding
T3 construct: CEREP (contract assay)

[9] = molecular target: T4, C5a (Homo sapiens, UniProt P21730); assay: CEREP panel; assay type: binding
T4 construct: CEREP (contract assay)

[10] = molecular target: T5, MCH2 (Homo sapiens, UniProt Q969V1); assay: CEREP panel; assay type: binding
T5 construct: CEREP (contract assay)

[11] = in vitro; settings: both, human, microsomes, pH 7.4
[12] = test system: Cl- channel (GABA-gated); assay: CEREP panel; assay type: binding; settings: 10 µM
[13] = test system: BB; assay: CEREP panel; assay type: binding; settings: 10 µM
[14] = molecular target: T6, mCB2R (Mus musculus, UniProt P47936); assay: Operational analysis of biased signalling
[15] = molecular target: T7, NK1 (h) (Homo sapiens, UniProt P25103); assay: CEREP panel; assay type: binding; settings: read-out: % inhibition NK1 (h)
T7 construct: CEREP (contract assay)

[16] = test system: P2X; assay: CEREP panel; assay type: binding; settings: 10 µM
[17] = molecular target: T8, BZD (peripheral) (Rattus norvegicus, UniProt P16257); assay: CEREP panel; assay type: binding; settings: read-out: % inhibition BZD (peripheral)
T8 construct: CEREP

[18] = molecular target: T6, mCB2R; assay: PathHunter β-arrestin recruitment assay; assay type: cell-based
[19] = test system: Ca2+ channel (verapamil site); assay: CEREP panel; assay type: binding; settings: 10 µM
[20] = molecular target: T9, A2A (h) (Homo sapiens, UniProt P29274); assay: CEREP panel; assay type: binding; settings: read-out: % inhibition A2A (h)
T9 construct: CEREP

[21] = molecular target: T10, NTS1 (NT1) (h) (Homo sapiens, UniProt P30989); assay: CEREP panel; assay type: binding; settings: read-out: % inhibition NTS1 (NT1) (h)
T10 construct: CEREP (contract assay)

[22] = molecular target: T11, dopamine transporter (h) (Homo sapiens, UniProt Q01959); assay: CEREP panel; assay type: binding
T11 construct: CEREP (contract assay)

[23] = molecular target: T12, CCK1 (CCKA) (h) (Homo sapiens, UniProt P32238); assay: CEREP panel; assay type: binding
T12 construct: CEREP (contract assay)

[24] = Pharmacokinetics, oral administration in mice; assay type: in vivo, mouse
[25] = molecular target: T13, beta 2 (h) (Homo sapiens, UniProt P07550); assay: CEREP panel; assay type: binding; settings: read-out: % inhibition beta 2 (h)
T13 construct: CEREP

[26] = molecular target: T14, hABHD12 (Homo sapiens, UniProt Q8N2K0); assay: ABHD12 activity; assay type: biochemical; settings: read-out: ABHD12 % inhibition
T14 construct: expressed in transfected cells
T14 sequence (Q8N2K0 1-398): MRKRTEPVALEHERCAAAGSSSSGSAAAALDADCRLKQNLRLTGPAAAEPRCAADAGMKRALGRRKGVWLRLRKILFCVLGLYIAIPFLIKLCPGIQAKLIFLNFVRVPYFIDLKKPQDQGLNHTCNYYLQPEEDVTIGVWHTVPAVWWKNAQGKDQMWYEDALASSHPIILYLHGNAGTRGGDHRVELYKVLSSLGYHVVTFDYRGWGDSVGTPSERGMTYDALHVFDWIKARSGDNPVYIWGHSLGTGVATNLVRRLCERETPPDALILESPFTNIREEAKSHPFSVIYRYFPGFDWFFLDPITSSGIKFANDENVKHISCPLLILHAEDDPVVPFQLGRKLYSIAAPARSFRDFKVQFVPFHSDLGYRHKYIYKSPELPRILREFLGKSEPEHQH

[27] = male, C57BL/6J or C57BL/6JRj, mouse, plasma, po, 5 mg/kg

T6 sequence (P47936 whole entry): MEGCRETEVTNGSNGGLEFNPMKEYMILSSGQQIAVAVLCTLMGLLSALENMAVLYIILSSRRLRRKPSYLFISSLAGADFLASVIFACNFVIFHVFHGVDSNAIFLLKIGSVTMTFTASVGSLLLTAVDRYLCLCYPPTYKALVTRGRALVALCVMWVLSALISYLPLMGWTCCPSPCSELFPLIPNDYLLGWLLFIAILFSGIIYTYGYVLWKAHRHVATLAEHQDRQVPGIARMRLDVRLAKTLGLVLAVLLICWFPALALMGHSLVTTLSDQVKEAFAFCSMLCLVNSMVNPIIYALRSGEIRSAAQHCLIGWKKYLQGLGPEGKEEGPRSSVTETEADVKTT
T10 sequence (P30989 whole entry): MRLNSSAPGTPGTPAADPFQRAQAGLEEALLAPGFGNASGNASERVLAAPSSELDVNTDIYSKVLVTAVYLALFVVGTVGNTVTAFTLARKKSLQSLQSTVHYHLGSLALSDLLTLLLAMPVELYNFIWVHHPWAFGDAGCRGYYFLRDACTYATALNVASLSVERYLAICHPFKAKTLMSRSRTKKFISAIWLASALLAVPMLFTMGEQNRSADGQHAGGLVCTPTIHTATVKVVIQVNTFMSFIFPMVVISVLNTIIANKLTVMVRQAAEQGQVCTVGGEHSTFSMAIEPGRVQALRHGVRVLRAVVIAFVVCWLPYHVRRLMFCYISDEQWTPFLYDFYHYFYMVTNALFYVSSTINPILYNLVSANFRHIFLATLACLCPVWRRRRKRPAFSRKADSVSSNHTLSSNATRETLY
T8 sequence (P16257 whole entry): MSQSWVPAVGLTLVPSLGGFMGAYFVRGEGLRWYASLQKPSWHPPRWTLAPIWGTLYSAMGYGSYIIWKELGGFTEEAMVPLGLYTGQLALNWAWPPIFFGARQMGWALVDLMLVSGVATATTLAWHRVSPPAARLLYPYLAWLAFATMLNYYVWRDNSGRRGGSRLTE
T11 sequence (Q01959 whole entry): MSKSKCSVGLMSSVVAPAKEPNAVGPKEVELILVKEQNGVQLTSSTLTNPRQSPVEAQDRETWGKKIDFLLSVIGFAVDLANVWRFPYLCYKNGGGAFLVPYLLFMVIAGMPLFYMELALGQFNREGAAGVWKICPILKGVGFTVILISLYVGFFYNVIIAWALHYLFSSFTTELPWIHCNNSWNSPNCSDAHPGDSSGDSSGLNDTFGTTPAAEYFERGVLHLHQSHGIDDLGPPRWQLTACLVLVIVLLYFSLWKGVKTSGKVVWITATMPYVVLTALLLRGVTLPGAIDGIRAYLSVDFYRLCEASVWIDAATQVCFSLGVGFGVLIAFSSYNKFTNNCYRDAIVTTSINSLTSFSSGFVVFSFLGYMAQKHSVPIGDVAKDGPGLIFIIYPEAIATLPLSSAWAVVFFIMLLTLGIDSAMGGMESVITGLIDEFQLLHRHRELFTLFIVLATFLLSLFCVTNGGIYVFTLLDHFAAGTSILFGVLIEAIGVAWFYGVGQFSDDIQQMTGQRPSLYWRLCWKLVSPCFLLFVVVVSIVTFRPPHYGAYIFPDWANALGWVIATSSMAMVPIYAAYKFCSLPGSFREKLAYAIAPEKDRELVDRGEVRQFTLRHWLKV
T5 sequence (Q969V1 whole entry): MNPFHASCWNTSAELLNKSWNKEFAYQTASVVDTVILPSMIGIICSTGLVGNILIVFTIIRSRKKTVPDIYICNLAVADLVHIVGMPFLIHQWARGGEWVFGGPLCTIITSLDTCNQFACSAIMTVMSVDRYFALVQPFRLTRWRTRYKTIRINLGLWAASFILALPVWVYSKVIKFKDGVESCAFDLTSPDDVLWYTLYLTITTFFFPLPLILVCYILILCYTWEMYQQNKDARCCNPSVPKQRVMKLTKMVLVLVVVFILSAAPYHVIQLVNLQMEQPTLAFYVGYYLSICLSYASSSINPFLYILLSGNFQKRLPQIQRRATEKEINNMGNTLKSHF
T1 sequence (Q01727 whole entry): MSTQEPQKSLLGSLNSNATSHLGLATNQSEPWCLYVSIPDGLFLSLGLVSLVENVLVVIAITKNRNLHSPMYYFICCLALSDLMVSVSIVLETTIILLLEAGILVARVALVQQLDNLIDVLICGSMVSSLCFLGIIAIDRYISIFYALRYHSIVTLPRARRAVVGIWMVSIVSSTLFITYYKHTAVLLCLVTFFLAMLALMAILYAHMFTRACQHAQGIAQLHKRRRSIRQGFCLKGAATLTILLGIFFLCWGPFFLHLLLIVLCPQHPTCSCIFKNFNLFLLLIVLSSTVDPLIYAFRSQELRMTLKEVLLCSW
T4 sequence (P21730 whole entry): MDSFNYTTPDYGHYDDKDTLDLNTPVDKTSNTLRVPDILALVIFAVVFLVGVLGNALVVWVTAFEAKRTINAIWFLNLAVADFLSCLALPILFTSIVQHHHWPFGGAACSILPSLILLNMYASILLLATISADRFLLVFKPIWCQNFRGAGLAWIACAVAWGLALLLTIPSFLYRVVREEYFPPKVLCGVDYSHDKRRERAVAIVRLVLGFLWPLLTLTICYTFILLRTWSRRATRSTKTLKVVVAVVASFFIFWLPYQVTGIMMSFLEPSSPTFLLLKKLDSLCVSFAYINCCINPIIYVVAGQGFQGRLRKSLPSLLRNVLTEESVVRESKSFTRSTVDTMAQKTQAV
T13 sequence (P07550 whole entry): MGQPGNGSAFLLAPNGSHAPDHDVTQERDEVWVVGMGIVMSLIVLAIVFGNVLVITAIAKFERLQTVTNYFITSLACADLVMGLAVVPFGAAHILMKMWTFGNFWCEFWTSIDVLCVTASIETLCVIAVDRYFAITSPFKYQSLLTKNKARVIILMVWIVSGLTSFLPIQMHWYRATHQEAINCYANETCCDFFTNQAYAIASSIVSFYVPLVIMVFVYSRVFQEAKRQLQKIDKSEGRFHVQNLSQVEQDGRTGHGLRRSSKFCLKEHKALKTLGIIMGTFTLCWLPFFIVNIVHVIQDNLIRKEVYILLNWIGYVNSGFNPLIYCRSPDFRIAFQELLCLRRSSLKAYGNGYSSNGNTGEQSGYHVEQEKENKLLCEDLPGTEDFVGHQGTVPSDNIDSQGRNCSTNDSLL
T3 sequence (O43193 whole entry): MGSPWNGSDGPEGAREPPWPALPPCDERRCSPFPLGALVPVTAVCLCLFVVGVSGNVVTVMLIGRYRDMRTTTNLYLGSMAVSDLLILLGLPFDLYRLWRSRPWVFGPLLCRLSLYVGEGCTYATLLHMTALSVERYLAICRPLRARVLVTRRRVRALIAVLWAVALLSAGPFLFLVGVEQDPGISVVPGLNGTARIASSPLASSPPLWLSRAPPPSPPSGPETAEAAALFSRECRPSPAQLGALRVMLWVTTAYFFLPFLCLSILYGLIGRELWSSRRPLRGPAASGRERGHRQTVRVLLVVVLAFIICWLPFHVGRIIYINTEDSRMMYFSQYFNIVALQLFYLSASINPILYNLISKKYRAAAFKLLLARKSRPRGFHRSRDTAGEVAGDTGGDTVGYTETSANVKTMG
T2 sequence (Q15722 whole entry): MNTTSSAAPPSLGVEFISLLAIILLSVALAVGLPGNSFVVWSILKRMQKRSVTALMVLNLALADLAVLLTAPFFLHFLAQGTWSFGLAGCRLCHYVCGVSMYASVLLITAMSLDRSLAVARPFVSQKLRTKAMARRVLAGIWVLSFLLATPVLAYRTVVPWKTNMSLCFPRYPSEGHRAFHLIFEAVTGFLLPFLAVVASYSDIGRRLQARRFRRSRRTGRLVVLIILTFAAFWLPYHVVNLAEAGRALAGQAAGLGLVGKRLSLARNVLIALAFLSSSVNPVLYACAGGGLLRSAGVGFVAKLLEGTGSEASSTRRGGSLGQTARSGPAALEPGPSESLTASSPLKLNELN
T9 sequence (P29274 whole entry): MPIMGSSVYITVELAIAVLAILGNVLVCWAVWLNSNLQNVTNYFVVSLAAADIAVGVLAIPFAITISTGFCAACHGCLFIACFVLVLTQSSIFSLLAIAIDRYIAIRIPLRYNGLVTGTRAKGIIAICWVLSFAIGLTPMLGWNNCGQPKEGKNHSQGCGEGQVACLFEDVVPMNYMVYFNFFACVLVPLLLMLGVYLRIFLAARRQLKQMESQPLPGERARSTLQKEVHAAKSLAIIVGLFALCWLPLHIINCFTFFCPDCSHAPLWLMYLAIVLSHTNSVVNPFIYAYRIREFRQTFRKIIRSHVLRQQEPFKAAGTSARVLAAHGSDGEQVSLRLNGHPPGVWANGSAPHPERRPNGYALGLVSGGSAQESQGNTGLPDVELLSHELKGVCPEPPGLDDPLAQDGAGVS
T7 sequence (P25103 whole entry): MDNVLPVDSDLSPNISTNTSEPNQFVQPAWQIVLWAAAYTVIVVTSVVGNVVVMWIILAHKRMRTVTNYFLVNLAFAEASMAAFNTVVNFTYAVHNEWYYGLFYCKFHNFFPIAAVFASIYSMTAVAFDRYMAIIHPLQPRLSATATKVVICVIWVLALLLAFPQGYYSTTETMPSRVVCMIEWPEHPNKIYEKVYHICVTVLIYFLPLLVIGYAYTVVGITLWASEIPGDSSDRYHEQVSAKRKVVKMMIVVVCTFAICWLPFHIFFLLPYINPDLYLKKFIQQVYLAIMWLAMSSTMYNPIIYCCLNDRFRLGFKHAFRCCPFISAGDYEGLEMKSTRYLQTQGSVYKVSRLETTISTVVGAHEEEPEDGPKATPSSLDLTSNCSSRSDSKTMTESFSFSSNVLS

Cc1c(C(=O)NN2CCCCC2)nn(-c2ccc(Cl)cc2Cl)c1-c1ccc(Cl)cc1 [SR141716A]
antagonism of HU210-induced catalepsy ([1]; mouse, in vivo): attenuated; also recorded: significantly antagonized
solubility [2]: 1.23 µg/mL and 2.7 µM
hepatocyte CLint [3]: 65 µL/min/1e6 cells
inhibition at 10 µM [4]: 10%
hepatocyte CLint [5]: 5.7 µL/min/1e6 cells
solubility kinetic [6]: < 0.733 µg/mL and < 1.6 µM
inhibition at 10 µM [7]: 14%
inhibition at 10 µM [8]: 25%
inhibition at 10 µM [9]: 2%
inhibition at 10 µM [10]: -3%
microsomal CLint [11]: 20 µL/min/mg
% inhibition Cl- channel (GABA-gated) [12]: 83%

CCCCCCC(C)(C)c1cc(OC)c([C@@H]2C=C(CO)[C@@H]3C[C@H]2C3(C)C)c(OC)c1 [HU308]
catalepsy, cannabimimetic effect ([1]; 1-100 mg kg^−1 i.p., cumulative, mice): did not produce detectable; also recorded: lacked appreciable pharmacological effects
solubility [2]: 2.06 µg/mL and 5 µM
% inhibition BB [13]: 3%
hepatocyte CLint [3]: 4.7 µL/min/1e6 cells
GTPγS-cAMP bias factor (BF) [14]: 25.8
GTPγS-cAMP ΔΔlogR [14]: 1.41 ± 0.27
LogR GTPγS [14]: 6.77 ± 0.05
LogR cAMP [14]: 8.07 ± 0.22
LogR β-AR [14]: 6.22 ± 0.10
β-AR-GTPγS bias factor (BF) [14]: 0.19
β-AR-GTPγS ΔΔlogR [14]: -0.72 ± 0.13
β-AR-cAMP bias factor (BF) [14]: 4.9
β-AR-cAMP ΔΔlogR [14]: 0.69 ± 0.28
ΔLogR GTPγS ([14]; reference CP55940): -1.04 ± 0.07
ΔLogR cAMP ([14]; reference CP55940): -2.46 ± 0.26
ΔLogR β-AR ([14]; reference CP55940): -1.77 ± 0.12
RE GTPγS ([14]; relative effectiveness): 0.09
RE cAMP ([14]; relative effectiveness): 0.004
RE β-AR ([14]; relative effectiveness): 0.02
inhibition at 10 µM [15]: 29%
% inhibition P2X [16]: 2%
inhibition at 10 µM [17]: 12%
EC50 [18]: 339 nM
Emax ([18]; read-out: Emax ± SEM β-AR recruitment mCB2R): 69 ± 3%
% inhibition Ca2+ channel (verapamil site) [19]: 3%
inhibition at 10 µM [20]: 25%
inhibition at 10 µM [21]: -23%
hepatocyte CLint [5]: 8.3 µL/min/1e6 cells
solubility kinetic [6]: < 0.75 µg/mL and < 1.8 µM
inhibition at 10 µM [22]: 71%
inhibition at 10 µM [23]: 75%
AUC(0-inf) [24, 27]: 298 ng·h/mL
AUC(0-t) [24, 27]: 253 ng·h/mL
half-life [24, 27]: 3.3 h
Cmax ([24]; male, C57BL/6J or C57BL/6JRj, mouse, plasma, po, 5 mg/kg, p.o., read-out: Cmax): 201 ng/mL
Tmax ([24]; male, C57BL/6J or C57BL/6JRj, mouse, plasma, po, 5 mg/kg, p.o., read-out: Tmax): 0.5 h
AUCinf/dose ([24]; p.o.): 59.7 kg·ng·h/mL/mg
inhibition at 10 µM [25]: -30%
inhibition at 5 µM [26]: < 25%
